In ChEMBL document CHEMBL3763105, “Semisynthesis of new aphidicolin derivatives with high activity against Trypanosoma cruzi” (Bioorg Med Chem Lett, 2016):

Tests used:
Trypanosoma cruzi = assay: Antitrypanosomal activity against Trypanosoma cruzi Tulahuen amastigotes infected in mouse C3H cells after 72 hrs by microplate reader analysis; format: functional, organism-based
[1] = Selectivity index, ratio of IC50 for mouse C3H cells to IC50 for Trypanosoma cruzi Tulahuen amastigotes infected in mouse C3H cells; format: toxicity, cell-based; conditions: read-out: Ratio IC50
[2] = Cytotoxicity against mouse C3H cells after 72 hrs by MTS assay; format: cell-based

SMILES	IC50 (Trypanosoma cruzi) [nM]	selectivity ratio [1]	IC50 [2] [nM]
CC(C)(C)[Si](C)(C)OC[C@]1(O)CC[C@@]23C[C@@H]1C[C@H]2CC[C@@H]1[C@@](C)(CO[Si](C)(C)C(C)(C)C)C(=O)CC[C@]13C	> 100000		
O=C(Cn1ccnc1[N+](=O)[O-])NCc1ccccc1 [BENZNIDAZOLE]	3000	> 100	> 100000
COc1cccc2c1C(=O)c1c(O)c3c(c(O)c1C2=O)C[C@@](O)(C(=O)CO)C[C@@H]3O[C@H]1C[C@H](N)[C@H](O)[C@H](C)O1 [DOXORUBICIN]			40
CC(C)(C)[Si](C)(C)OC[C@]1(O)CC[C@@]23C[C@@H]1C[C@H]2CC[C@@H]1[C@@](C)(CO[Si](C)(C)C(C)(C)C)[C@@H](O)CC[C@]13C	> 100000		

Further lines, with some results ahead:

IC50 (Trypanosoma cruzi) [nM]	SMILES	selectivity ratio [1]	IC50 [2] [nM]
780	C[C@]12COS(=O)O[C@H]1CC[C@]1(C)[C@@H]2CC[C@@H]2C[C@H]3C[C@]21CC[C@@]3(O)CO (some centres not stated)	> 100	> 100000
1700	C[C@]1(CO)/C(=N\O)CC[C@]2(C)[C@@H]1CC[C@@H]1C[C@H]3C[C@]12CC[C@@]3(O)CO	37.9	64500
